Experimental data reported in BigSolDB 2.1.

N[C@@H](C(=O)O)c1ccc(O)cc1
solubility (mole fraction) (in DMF, 278.27 K): 1.99e-05
solubility (mole fraction) (in DMF, 283.23 K): 2.39e-05
solubility (mole fraction) (in DMF, 288.18 K): 2.67e-05
solubility (mole fraction) (in DMF, 293.2 K): 3.38e-05
solubility (mole fraction) (in DMF, 298.39 K): 4.03e-05
solubility (mole fraction) (in DMF, 303.18 K): 4.93e-05
solubility (mole fraction) (in DMF, 308.26 K): 6e-05
solubility (mole fraction) (in DMF, 313.2 K): 7.04e-05
solubility (mole fraction) (in DMF, 318.39 K): 8.68e-05
solubility (mole fraction) (in DMF, 323.15 K): 0.000102
solubility (mole fraction) (in ethanol, 278.28 K): 9.26e-05
solubility (mole fraction) (in ethanol, 283.42 K): 9.3e-05
solubility (mole fraction) (in ethanol, 288.18 K): 9.34e-05
solubility (mole fraction) (in ethanol, 293.24 K): 9.37e-05
solubility (mole fraction) (in ethanol, 298.38 K): 9.4e-05
solubility (mole fraction) (in ethanol, 303.17 K): 9.42e-05
solubility (mole fraction) (in ethanol, 308.39 K): 9.43e-05
solubility (mole fraction) (in ethanol, 313.19 K): 9.44e-05
solubility (mole fraction) (in ethanol, 318.37 K): 9.45e-05
solubility (mole fraction) (in ethanol, 323.26 K): 9.45e-05
solubility (mole fraction) (in methanol, 278.17 K): 0.00042
solubility (mole fraction) (in methanol, 283.22 K): 0.000421
solubility (mole fraction) (in methanol, 288.21 K): 0.000421
solubility (mole fraction) (in methanol, 293.28 K): 0.000423
solubility (mole fraction) (in methanol, 298.24 K): 0.000424
solubility (mole fraction) (in methanol, 303.32 K): 0.000425
solubility (mole fraction) (in methanol, 308.2 K): 0.000426
solubility (mole fraction) (in methanol, 313.26 K): 0.000427
solubility (mole fraction) (in methanol, 318.27 K): 0.000429
solubility (mole fraction) (in methanol, 323.25 K): 0.00043
solubility (mole fraction) (in tetrachloromethane, 278.38 K): 0.000225
solubility (mole fraction) (in tetrachloromethane, 283.23 K): 0.000227
solubility (mole fraction) (in tetrachloromethane, 288.38 K): 0.000231
solubility (mole fraction) (in tetrachloromethane, 293.36 K): 0.000234
solubility (mole fraction) (in tetrachloromethane, 298.29 K): 0.000239
solubility (mole fraction) (in tetrachloromethane, 303.21 K): 0.000244
solubility (mole fraction) (in tetrachloromethane, 308.36 K): 0.00025
solubility (mole fraction) (in tetrachloromethane, 313.3 K): 0.000258
solubility (mole fraction) (in tetrachloromethane, 318.24 K): 0.000264
solubility (mole fraction) (in tetrachloromethane, 323.19 K): 0.000272
solubility (mole fraction) (in toluene, 278.28 K): 0.000157
solubility (mole fraction) (in toluene, 283.33 K): 0.000164
solubility (mole fraction) (in toluene, 288.38 K): 0.000165
solubility (mole fraction) (in toluene, 293.32 K): 0.000172
solubility (mole fraction) (in toluene, 298.23 K): 0.000175
solubility (mole fraction) (in toluene, 303.32 K): 0.00018
solubility (mole fraction) (in toluene, 308.39 K): 0.000189
solubility (mole fraction) (in toluene, 313.37 K): 0.000195
solubility (mole fraction) (in toluene, 318.17 K): 0.000205
solubility (mole fraction) (in toluene, 323.27 K): 0.000216
solubility (mole fraction) (in water, 278.27 K): 0.0018
solubility (mole fraction) (in water, 283.25 K): 0.00186
solubility (mole fraction) (in water, 288.37 K): 0.00194
solubility (mole fraction) (in water, 293.17 K): 0.00203
solubility (mole fraction) (in water, 298.26 K): 0.00215
solubility (mole fraction) (in water, 303.29 K): 0.00229
solubility (mole fraction) (in water, 308.26 K): 0.00244
solubility (mole fraction) (in water, 313.28 K): 0.00261
solubility (mole fraction) (in water, 318.17 K): 0.00279
solubility (mole fraction) (in water, 323.21 K): 0.00299
